# Legend:
# [1] = Plasma concentration in diabetic db/db mouse at 30 mg/kg administered at 4.5 and 0.5 hrs prior to oral glucose challenge measured 20 mins post second dose; conditions: plasma
# [2] = Inhibition of GSK3 expressed in CHO-IR cells expressing human insulin receptor assessed as glycogen synthase activation after 30 mins by filter paper assay; assay type: cell-based, Cavia porcellus
# [3] = Stability in dog liver microsomes assessed as half life; assay type: ADME, Canis lupus familiaris, microsome
# [4] = Stability in rat liver microsomes assessed as half life; assay type: ADME, microsome
# [5] = Inhibition of human GSK3 using biotin-CREB peptide substrate after 1 hr by scintillation counting method
Compound,concentration at 20 min [1],EC50 [2],half-life [3],half-life [4],IC50 [5]
Nc1nc(NCCNc2ncc(-c3ncc[nH]3)c(-c3ccc(Cl)cc3Br)n2)ccc1[N+](=O)[O-],13000 ng/mL,260 nM,> 30 min,> 30 min,6 nM
Nc1nc(NCCNc2ncc(-c3ncc[nH]3)c(-c3ccccc3Cl)n2)ccc1[N+](=O)[O-],–,730 nM,> 30 min,> 30 min,12 nM
Nc1nc(NCCNc2ncc(-c3ncc[nH]3)c(-c3cc(F)ccc3F)n2)ccc1[N+](=O)[O-],–,3000 nM,> 30 min,> 30 min,47 nM
Nc1nc(NCCNc2ncc(N3CCOCC3)c(-c3ccc(Cl)cc3Cl)n2)ccc1[N+](=O)[O-],1000 ng/mL,70 nM,–,–,7 nM
N#Cc1ccc(-c2nc(NCCNc3ccc([N+](=O)[O-])cn3)ncc2-c2ncc[nH]2)cc1,1000 ng/mL,5000 nM,–,–,19 nM
Nc1nc(NCCNc2ncc(-c3ncc[nH]3)c(-c3cc(F)c(F)cc3F)n2)ccc1[N+](=O)[O-],–,6880 nM,> 30 min,> 30 min,38 nM
Nc1nc(NCCNc2ncc(-c3ncc[nH]3)c(-c3cc(F)c(Cl)cc3Cl)n2)ccc1[N+](=O)[O-],–,2280 nM,> 30 min,> 30 min,13 nM
Nc1cnc(NCCNc2ccc([N+](=O)[O-])c(N)n2)nc1-c1ccc(Cl)cc1Cl,1000 ng/mL,290 nM,–,–,10 nM
Nc1nc(NCCNc2ncc(-c3ncc[nH]3)c(-c3cc(F)c(Cl)cc3F)n2)ccc1[N+](=O)[O-],–,2190 nM,> 30 min,> 30 min,19 nM
Nc1nc(NCCNc2ncc(-c3ncc[nH]3)c(-c3ccc(F)cc3F)n2)ccc1[N+](=O)[O-],–,5650 nM,> 30 min,> 30 min,9 nM
Cc1ccc(-c2nc(NCCNc3ccc([N+](=O)[O-])c(N)n3)ncc2-c2ncc[nH]2)c(Br)c1,–,50 nM,> 30 min,> 30 min,4 nM
Nc1nc(NCCNc2ncc(-c3ncc[nH]3)c(-c3ccc(F)cc3Br)n2)ccc1[N+](=O)[O-],–,220 nM,> 30 min,> 30 min,4 nM
CN1CCN(c2cnc(NCCNc3ccc([N+](=O)[O-])c(N)n3)nc2-c2ccc(Cl)cc2Cl)C(=O)C1,4000 ng/mL,30 nM,–,–,4 nM
Clc1ccc(-c2nc(NCCNc3ccccn3)ncc2-c2ncc[nH]2)c(Cl)c1,–,–,> 30 min,> 30 min,2860 nM
Nc1nc(NCCNc2ncc(-c3ncc[nH]3)c(-c3ccc(C(F)(F)F)cc3)n2)ccc1[N+](=O)[O-],–,5920 nM,> 30 min,> 30 min,51 nM
N#Cc1ccc(-c2nc(NCCNc3ccc([N+](=O)[O-])cn3)ncc2-n2ccnc2)cc1,5000 ng/mL,1300 nM,–,–,11 nM
Cc1cc(Cl)ccc1-c1nc(NCCNc2ccc([N+](=O)[O-])c(N)n2)ncc1-c1ncc[nH]1,–,810 nM,> 30 min,> 30 min,19 nM
Nc1nc(NCCNc2ncc(-c3ncc[nH]3)c(-c3ccc(Br)cc3Cl)n2)ccc1[N+](=O)[O-],–,430 nM,> 30 min,> 30 min,4 nM
N#Cc1ccc(-c2nc(NCCNc3ccc([N+](=O)[O-])c(N)n3)ncc2-c2ncc[nH]2)cc1,–,> 10000 nM,> 30 min,> 30 min,7 nM
Nc1nc(NCCNc2ncc(-c3ncc[nH]3)c(-c3ccc(Cl)cc3F)n2)ccc1[N+](=O)[O-],–,1020 nM,> 30 min,> 30 min,5 nM
Nc1nc(NCCNc2ncc(-c3ncc[nH]3)c(-c3ccc(Cl)cc3)n2)ccc1[N+](=O)[O-],–,2500 nM,> 30 min,> 30 min,31 nM
Cn1ccnc1-c1cnc(NCCNc2ccc([N+](=O)[O-])c(N)n2)nc1-c1ccc(Cl)cc1Cl,–,250 nM,–,–,1 nM
Cc1cc(NCCNc2ncc(-n3ccnc3)c(-c3ccc(Cl)cc3Cl)n2)n2ncnc2n1,–,> 10000 nM,–,–,108 nM
CN1CCN(c2cnc(NCCNc3ccc([N+](=O)[O-])c(N)n3)nc2-c2ccc(Cl)cc2Cl)CC1,3000 ng/mL,50 nM,–,–,6 nM
Cc1c[nH]c(-c2cnc(NCCNc3ccc([N+](=O)[O-])cn3)nc2-c2ccc(Cl)cc2Cl)n1,19000 ng/mL,290 nM,–,–,8 nM
O=[N+]([O-])c1ccc(NCCNc2ncc(-c3nnn[nH]3)c(-c3ccc(Cl)cc3Cl)n2)nc1,–,10000 nM,–,–,31 nM
Nc1nc(NCCNc2ncc(N3CCCC3=O)c(-c3ccc(Cl)cc3Cl)n2)ccc1[N+](=O)[O-],–,1580 nM,–,–,6 nM

Compound,concentration at 20 min [1],EC50 [2],half-life [3],half-life [4],IC50 [5]
O=[N+]([O-])c1ccc(NCCN(CCN2CCCC2)c2ncc(-n3ccnc3)c(-c3ccc(Cl)cc3Cl)n2)nc1,–,370 nM,–,–,26 nM
Nc1nc(NCCNc2ncc(-c3ncc[nH]3)c(-c3ccc(F)cc3Cl)n2)ccc1[N+](=O)[O-],–,420 nM,> 30 min,> 30 min,7 nM
CCOC(=O)c1c(CC)nc(NCCNc2ccc([N+](=O)[O-])cn2)nc1-c1ccc(C#N)cc1,–,1700 nM,–,–,40 nM
COc1cc(Cl)ccc1-c1nc(NCCNc2ccc([N+](=O)[O-])c(N)n2)ncc1-c1ncc[nH]1,–,–,> 30 min,> 30 min,249 nM
FC(F)(F)c1ccc(NCCNc2ncc(-n3ccnc3)c(-c3ccc(Cl)cc3Cl)n2)nc1,–,3840 nM,–,–,223 nM
FC(F)(F)c1ccc(NCCNc2ncc(-c3ncc[nH]3)c(-c3ccc(Cl)cc3Cl)n2)nc1,–,1240 nM,> 30 min,> 30 min,35 nM
Cc1nc(-c2cnc(NCCNc3ccc([N+](=O)[O-])c(N)n3)nc2-c2ccc(Cl)cc2Cl)n(C)c1C,–,320 nM,–,–,22 nM
CC(C)c1c[nH]c(-c2cnc(NCCNc3ccc([N+](=O)[O-])c(N)n3)nc2-c2ccc(Cl)cc2Cl)n1,–,90 nM,–,–,21 nM
Nc1nc(NCCNc2ncc(-c3ncc[nH]3)c(-c3ccccc3Br)n2)ccc1[N+](=O)[O-],–,240 nM,> 30 min,> 30 min,7 nM
Nc1nc(NCCNc2ncc(-c3ncc[nH]3)c(-c3cc(F)ccc3Cl)n2)ccc1[N+](=O)[O-],–,–,> 30 min,> 30 min,32 nM
N#Cc1ccc(-c2nc(NCCNc3ccc([N+](=O)[O-])cn3)ncc2C(N)=O)cc1,–,> 10000 nM,–,–,29 nM
O=[N+]([O-])c1ccc(NCCNc2ncc(-n3ccnc3)c(-c3ccc(Cl)cc3Cl)n2)nc1,–,300 nM,–,–,6 nM
CN(C)CCN(CCNc1ccc([N+](=O)[O-])cn1)c1ncc(-n2ccnc2)c(-c2ccc(Cl)cc2Cl)n1,–,350 nM,–,–,35 nM
Nc1nc(NCCNc2ncc(-c3ncc[nH]3)c(-c3ccc(Br)cc3F)n2)ccc1[N+](=O)[O-],–,500 nM,> 30 min,> 30 min,5 nM
N#Cc1ccc(NCCNc2ncc(-n3ccnc3)c(-c3ccc(Cl)cc3Cl)n2)nc1,13000 ng/mL,790 nM,–,–,25 nM
Cc1ccc(-c2nc(NCCNc3ccc([N+](=O)[O-])cn3)ncc2-n2ccnc2)c(C)c1,–,4200 nM,–,–,38 nM
Nc1nc(NCCNc2ncc(-c3ncc[nH]3)c(-c3ccc(F)cc3C(F)(F)F)n2)ccc1[N+](=O)[O-],–,3300 nM,> 30 min,> 30 min,13 nM
Nc1nc(NCCNc2ncc(NC(=O)CCCN3CCOCC3)c(-c3ccc(Cl)cc3Cl)n2)ccc1[N+](=O)[O-],–,17700 nM,–,–,24 nM
CCOC(=O)c1c(-c2ccc(C(N)=O)cc2)nc(NCCNc2ccc([N+](=O)[O-])cn2)nc1-c1ccc([N+](=O)[O-])cc1,–,18000 nM,–,–,150 nM
Nc1nc(NCCNc2ncc(CO)c(-c3ccc(Cl)cc3Cl)n2)ccc1[N+](=O)[O-],12000 ng/mL,150 nM,–,–,7 nM
O=[N+]([O-])c1ccc(NCCNc2ncc(-n3ccnc3)c(-c3ccc(C(F)(F)F)cc3)n2)nc1,–,2500 nM,–,–,40 nM
Nc1nc(NCCNc2ncc(-c3ccccn3)c(-c3ccc(Cl)cc3Cl)n2)ccc1[N+](=O)[O-],–,10 nM,–,–,7 nM
Clc1ccc(-c2nc(NCCNc3nc4ccc(Cl)cc4s3)ncc2-n2ccnc2)c(Cl)c1,–,12700 nM,–,–,527 nM
CN(CCNc1ccc([N+](=O)[O-])cn1)c1ncc(-n2ccnc2)c(-c2ccc(Cl)cc2Cl)n1,–,80 nM,–,–,22 nM
O=[N+]([O-])c1cnc(NCCNc2ncc(-n3ccnc3)c(-c3ccc(Cl)cc3Cl)n2)s1,–,> 10000 nM,–,–,24 nM
Nc1nc(NCCNc2ncc(-c3nc(-c4ccccc4)c[nH]3)c(-c3ccc(Cl)cc3Cl)n2)ccc1[N+](=O)[O-],–,130 nM,–,–,1 nM
Nc1nc(NCCNc2ncc(N3CCNCC3)c(-c3ccc(Cl)cc3Cl)n2)ccc1[N+](=O)[O-],–,510 nM,–,–,18 nM
